These are literature values, as cited in patent publication US20090325943A1, “VETERINARY PHARMACEUTICAL COMPOSITIONS FOR THE TREATMENT OF PAIN AND INFLAMMATION” (priority 2006, published 2009).

For series [1] the following is noted: dog, regardless of the administration route.

In the case of `COc1cccc(C2(O)CCCCC2CN(C)C)c1` (stereo not shown) [tramadol], where the note is “6 animal species”, the “bond with the plasma proteins” value is “modest” and the “peak plasma concentration (time to peak)” value is at most 2 h. Also, the absorption entry (administered by the i.m. route) is “almost total”. In addition, in series [1], the “half-life (elimination mainly by the renal route)” value is reported as “approx. 2.5 hours”.
